Earlier results in patent publication US20070207452A1, “Method of detecting micronucleus in cell” (Olympus Corporation, priority 2004, published 2007).

Test system: bacteria
Details: background statement; carcinogenic substances detected by the chromosomal aberration test

SMILES	result in the reverse mutation test
c1ccccc1 [benzene]	negative
CC/C(=C(/CC)c1ccc(O)cc1)c1ccc(O)cc1 [diethylstilbestrol]	negative
